Experimental data reported in patent USRE28819E, “Dialkylated glycol compositions and medicament preparations containing same” (Syntex (U.S.A.) Inc., priority 1975, dated 1976).
Values after ≈ are worked out from the molar mass of the structure shown. Structures can show the parent of a compound that is named as a salt.

Experiments:
[1] = solubility of medicament in polyethylene glycol-550-dimethyl ether at 30°C
physchem = conditions: polyethylene glycol-550-dimethyl ether, organic solvent or mixture
[2] = literature (Brummer; Karim et al); cited from earlier work
[3] = storage stability of PGE2 formulations (percent activity, t90); type: physicochemical; conditions: PGE2, conclusion from Examples XV-XXIX
Description: A formulation is prepared having 1 mg. PGE2 per ml. 1,2-dimethoxyethane. After 12 days storage at 60°C. under a nitrogen atmosphere, the PGE2 assays 100% of the activity at time zero.
A formulation is prepared having 1 mg. PGE2 per ml. of triethylene glycol-dimethyl ether. After 5 days storage at 60°C. under a nitrogen atmosphere, the PGE2 assays 100% of the activity at time zero.
The following formulations are prepared having 1 mg. PGE2 per ml. of polyethylene glycol-550-dimethyl ether, and the additional material(s) as set forth below. The percent activity of the PGE2 after storage for 7 days at 80°C. is also given.
A formulation is prepared having 1 mg. PGE2, 0.01% edetic acid, 0.01% BHA and 0.01% BHT per ml. polyethylene glycol-550-dimethyl ether, and sealed in an ampule under nitrogen atmosphere. After 18 days storage at 80°C., the PGE2 assays 100% of the activity at time zero.
The following formulations are prepared having 1 mg. PGE2 per ml. polyethylene glycol-550 -dimethyl ether, and the additional material(s) as set forth below, and the sealed in individual ampules under nitrogen atmosphere. The time (t90) for 10% of the PGE2 to decompose when stored at 80°C. is given. Also given is the corresponding t90 for a formulation having 1 mg. PGE2 per ml. polyethylene glycol-400, also sealed under nitrogen atmosphere.
By comparison, 1 mg. […]

[4] = decomposition of aspirin vs. time in formulation stored at 80°C; type: physicochemical; conditions: conclusion from Examples XV-XXIX
Description: A formulation is prepared having 0.5 g. aspirin per 1.0g. polyethylene glycol- 750-dimethyl ether, and stored at 80°C. Decomposition of the aspirin is measured vs. time. The time for 10% decomposition is 27 hours. This reflects approximately a 30 month shelf-life at 25°C. This can be compared to a published report [Jun et al, J. Pharm. Sec.

[5] = polyethylene glycol-550-dimethyl ether, organic solvent or mixture

| Compound | solubility [1, 5] | solubility (physchem) | other results |
| --- | --- | --- | --- |
| CCCCC[C@H](O)/C=C/[C@@H]1[C@@H](C/C=C\CCCC(=O)O)[C@@H](O)C[C@H]1O [PGF2α, 9α,11α,15α-trihydroxy-5,13-prostadienoic acid] | – | 36000 µg/mL (≈ 102 mM) | – |
| CC1(C)O[C@@H]2C[C@H]3[C@@H]4C[C@H](F)C5=CC(=O)C=C[C@]5(C)[C@@]4(Cl)[C@@H](Cl)C[C@]3(C)[C@]2(C(=O)CCl)O1 [9α,11β,21-trichloro-6α-fluoro-16α,17α-isopropylidenedioxy-pregna-1,4-diene-3,20-dione] | – | 1500 µg/mL (≈ 2.97 mM) | – |
| CC(=O)[C@@]12OC(C)(C)O[C@@H]1C[C@H]1[C@@H]3C[C@H](F)C4=CC(=O)C=C[C@]4(C)[C@@]3(F)[C@@H](O)C[C@@]12C [6α,9α-difluoro-11β-hydroxy-16α,17α-isopropylidenedioxy-pregna-1,4-diene-3,20-dione] | – | 6500 µg/mL (≈ 14.9 mM) | – |
| gramicidin | – | – | solubility ([1]; in polyethylene glycol-550-dimethyl ether, 30°C): 4400 µg/mL |
| CN(C)C1C(=O)C(C(N)=O)=C(O)C2(O)C(=O)C3=C(O)c4c(O)cccc4C(C)(O)C3C(O)C12 (stereo not drawn) [oxytetracycline hydrochloride] | – | 340 µg/mL | – |

Second part, led by results:

| solubility [1, 5] | Compound | solubility (physchem) | other results |
| --- | --- | --- | --- |
| 111000 µg/mL (≈ 672 mM) | CCOC(=O)c1ccc(N)cc1 [benzocaine] | – | – |
| 2700 µg/mL (≈ 7.86 mM) | CCCCCCCCCCCCCCCC(=O)N(CCO)CCO [N,N-bis(2-hydroxyethyl)-palmitamide] | – | – |
| 2000 µg/mL (≈ 5.67 mM) | CCCCC[C@H](O)/C=C/[C@H]1[C@H](O)CC(=O)[C@@H]1C/C=C\CCCC(=O)O [PGE2, 11α,15α-dihydroxy-9-keto-5,13-prostadienoic acid] | – | chemical stability [2]: relatively unstable; chemical potency in the dialkylated glycol vehicle [3]: stabilizes, for extended periods of time, the chemical potency |
| 120000 µg/mL (≈ 666 mM) | CC(=O)Oc1ccccc1C(=O)O [aspirin, acetylsalicylic acid] | – | chemical potency in the dialkylated glycol vehicle [4]: stabilizes, for extended periods of time, the chemical potency |
